Source: patent US20240058283A1, “THE MODE OF ACTION OF N-MeDCPA ON TRPC CHANNELS” (West Virginia University Board of Governors on Behalf of …, priority 2022, published 2024)

What was measured:
[1] = Serum levels in vivo
Description: We have extensively investigated inhibitors of the store-operated Ca^2+ entry (SOCE) pathway as a target for control of bone erosion, particularly in the context of arthritis. […] On this basis, we have assessed the possibility that DCPA and/or DCPA analogs might be effective inhibitors of bone erosion in the context of arthritis^6. While this has proven to the case (data not shown), this investigation has opened new questions regarding the true identity of the DCPA target. […] As such, we have assessed the possibility that DCPA and its analogs may have a different target, especially within the context of arthritis.

[2] = system: osteoclasts; details: reference 3, cited from earlier work

Structure (SMILES): CCC(=O)Nc1ccc(Cl)c(Cl)c1 [DCPA, 3,4-dichloropropionaniline]
- serum levels [1]: ≤ 100 nM
- formation of bone degrading osteoclasts ([2]; in vitro): reduced the formation of bone degrading osteoclasts
- concentration needed to block osteoclast differentiation ([2]; no block below this concentration): ≥ 100 µM
